In publication PMC8145596, “Novel Chemically Modified Curcumin (CMC) Derivatives Inhibit Tyrosinase Activity and Melanin Synthesis in B16F10 Mouse Melanoma Cells” (Biomolecules, 2021):

How the values were obtained:
[1] = DPPH radical scavenging antioxidant assay; conditions: 60 μM DPPH, 30 min
Method: Melanin production catalyzed by the tyrosinase pathway is often associated with higher levels of oxidative stress and reactive oxygen species (ROS) generation. […] DPPH (2,2-Diphenyl-1-picrylhydrazyl) is a stable free radical which changes color from purple to yellow upon reduction by antioxidant compounds. Briefly, 180 µL of DPPH reagent that was prepared in methanol was combined with 20 µL of different concentrations of the compounds in a 96-well plate to give a final DPPH concentration of 60 μM in each well. A control group consisted of DPPH only while ascorbic acid (AA) at 20 µM was used as a positive control. The plate was covered and incubated for 30 min, after which the absorbance was read at 517 nm and the DPPH radical scavenging activity was reported as % of control.

[2] = tested on: B16F10 mouse melanoma cells; test: MTS cell viability assay; type: cell-based; conditions: for cytotoxicity / cell viability: 48 h; for cytotoxicity: B16F10, full concentration range; for cell viability: B16F10
Method: B16F10 mouse melanoma cells (CRL-6475™) were obtained from American Type Culture Collection (ATCC, Manassas, VA, USA) and cultured using Dulbecco’s Modified Eagle Medium (DMEM) supplemented with 10% heat-inactivated fetal bovine serum (HI-FBS) and 1% antibiotics (penicillin-streptomycin) in a humidified incubator with 95% air—5% CO2 at 37 °C. In order to test the four CMCs (CMC2.14, CMC2.24, CMC2.5 and CMC2.23) to that of PC, for their effects on melanin content, we first screened them for cytotoxicity using a tetrazolium assay with MTS (Promega CellTiter Aqueous One). Briefly, B16F10 cells were seeded at 4 × 10^3 cells/well in a 96-well plate for 24 h. The compounds were diluted using culture medium to yield a final DMSO in all groups of 0.16% and added to the cell monolayers in wells after 24 h. Control was treated with 0.16% DMSO. At the end of 48 h, the medium was aspirated and replaced by 100 μL of fresh medium. 20 μL of MTS reagent was then added, and the plate was incubated at 37 °C for 40 min. At this point, the absorbance of 100 μL aliquots was read at 490 nm using a microplate reader. Cell viability was calculated from the absorbance values relative to control groups and expressed in %.

[3] = tested on: tyrosinase activity in B16F10 cells; test: Recovery study of intracellular tyrosinase activity; type: cell-based, mouse
Method: In order to establish reversibility of tyrosinase inhibition by the CMCs, we conducted a recovery study for 48 h using the highest concentrations of the compounds that produced maximum inhibition of tyrosinase activity. B16F10 cells were plated in six-well plates at 3.5 × 10^4 cells/well and then compounds were added the next day. Tyrosinase activity was estimated after 48 h exposure in cellular lysates and another set of cultures were continued with fresh medium without the compounds to study the recovery of tyrosinase activity for 48 h. Results are expressed as % tyrosinase activity for both 48 h exposure and 48 h recovery.

[4] = tested on: α-glucosidase activity in B16F10 cells; test: Intracellular α-glucosidase assay; type: cell-based, mouse; conditions: 48 h; for inhibition at 10 µM / inhibition at 20 µM / inhibition at 25 µM / inhibition at 5 µM: Mus musculus, B16-F10, read-out: inhibition of cellular α-glucosidase activity
Method: B16F10 cells (2.2 × 10^5) were grown in 6-well plates and compounds were added next day for 48 h. Cells were harvested, lysed and 50 µL of lysates were aliquoted in a 96-well plate with 100 µL of 2 mM pNG substrate; rate of the formation of the yellow-colored reaction product, p-nitrophenol, was monitored at 405 nm for 30 min at 37 °C in a microplate reader (kinetic mode) and values were normalized to total protein contents. The cellular α-glucosidase activity was calculated as (rate of sample reaction/rate of control reaction) × 100 and was expressed as percentage of control.

[5] = tested on: MITF protein in B16F10 cells; test: MITF protein levels by cell-based ELISA; parameters: species or system mouse; conditions: 48 h
Method: Microphthalmia Transcription Factor (MITF), a known transcription factor for the tyrosinase gene, is a master regulator of melanogenesis and is activated by cyclic adenosine monophosphate (cAMP) signaling after UV irradiation, reflecting the role of cAMP as a key maturation factor in melanogenesis. The effects of PC and CMCs on MITF protein levels were assayed using a cell-based ELISA (Lifespan Biosciences, Seattle, WA, USA). Briefly, B16F10 cells were cultured in a 96-well plate at 1 × 10^4 cells/well for 24 h and then the medium was replaced with fresh medium containing compounds in 0.1% DMSO and cultures maintained for further 48 h. The cells were then fixed, and subsequent steps were conducted according to the manufacturers’ instructions. MITF protein levels were normalized to cell density by measuring the absorbance of crystal violet stain added to the fixed cells and the data was reported as % of control.

[6] = Copper chelating assay (pyrocatechol violet)
Method: Copper chelation can be detected by a PV colorimetric assay as reported in other studies and similar to the method reported in our previous study. Briefly, 100 µL aliquots of different concentrations of compounds prepared in 50 mM sodium acetate buffer (pH 6.0) were added to a 96-well plate. The control group consisted of buffer only, while KA at 500 µM served as a positive control. Copper sulfate (2 mM; 10 µL) was added to each of the samples and incubated for 10 min. Next, 10 µL of 2 mM PV was added and the plate was further incubated for 20 min. The absorbance was read at 632 nm using a microplate reader; a lower absorbance compared to that of the buffer control was indicative of copper chelation.

[7] = Mus musculus, B16-F10, 48 h, read-out: loss of tyrosinase activity after 48 h exposure (recovery study)

Compound | DPPH radical scavenging activity [1] | cytotoxicity [2] | inhibition at 20 µM [3, 7] [%] | inhibition at 10 µM ([4]; 10 µM) [%] | inhibition at 20 µM [4] [%] | inhibition at 25 µM ([4]; 25 µM) [%] | attenuation of MITF protein levels ([5]; 20 µM) [%] | attenuation of MITF protein levels ([5]; 25 µM) [%] | tyrosinase activity after 48 h recovery in compound-free medium ([3]; after exposure to 10 µM) | attenuation of MITF protein levels ([5]; 10 µM) [%] | inhibition at 5 µM ([4]; 5 µM) [%] | also measured
COC(=O)/C(C(=O)/C=C/c1ccc(O)c(OC)c1)=C(O)\C=C\c1ccc(O)c(OC)c1 [CMC2.5, 4-methoxycarbonyl curcumin] | significant radical scavenging activity | nontoxic over the full concentration range | 42.5 | 12.4 | 25.6 | 27.4 | 32.17 | 35.4 | – | – | – | tyrosinase activity after 48 h recovery in compound-free medium ([3]; after exposure to 20 µM): 100%
COC(=O)/C(C(=O)/C=C/c1ccc(O)cc1)=C(O)\C=C\c1ccc(O)cc1 [CMC2.14] | did not demonstrate such activity | – | – | 16.5 | – | – | – | – | 100% | 23.67 | – | inhibition at 10 µM ([3]; Mus musculus, B16-F10, 48 h, 10 µM, read-out: loss of tyrosinase activity after 48 h exposure (recovery study)): 74.8%
COc1cc(/C=C/C(=O)/C(C(=O)Nc2ccccc2)=C(O)/C=C/c2ccc(O)c(OC)c2)ccc1O [CMC2.23] | significant radical scavenging activity | nontoxic over the full concentration range | 52.7 | 14.9 | 11.8 | – | 39.29 | 37.22 | – | 32.27 | 12.4 | inhibition of cellular α-glucosidase activity ([4]; 25 µM): no change
1,7-bis(4-hydroxy-3-methoxyphenyl)-1,6-heptadien-3,5-dione [PC, reference compound] | high radical scavenging activity | – | – | – | – | – | – | – | did not differ from that of the control group | 28.62 | – | effect on copper chelation [6]: did not show any effect on copper chelation; cell viability ([2]; 20 µM): 29.47%; cell viability ([2]; 25 µM): 30.83%; concentrations with significant cytotoxicity ([2]; B16F10, 48 h): > 10 µM; inhibition ([3]; 10 µM, read-out: loss of tyrosinase activity after 48 h exposure (recovery study)): 89.5%; inhibition of cellular α-glucosidase activity ([4]; 5 µM): 13.71%; inhibition of cellular α-glucosidase activity ([4]; 10 µM): 10.47%
O=C(/C=C/c1ccc(O)cc1)/C(C(=O)Nc1ccccc1)=C(O)/C=C/c1ccc(O)cc1 [CMC2.24] | did not demonstrate such activity | nontoxic over the full concentration range | 73.3 | 12.6 | 20.3 | 16.4 | 31.79 | 38.84 | – | 28.39 | 10.2 | copper chelating activity ([6]; 20 µM, compared to the control): 11.86%
